A short description of data set [1]: Draize-Ocular Irritation assessment during the PK study. Particulars: MPP 0.5%, 50 μL topical, BID 5 days. Type of data set: in vivo, Dutch-belted rabbits. The source says:
(§1) Dutch-belted rabbits were used in these studies.

Data set [2] in a line: Pharmacokinetic study, back of the eye drug exposure after topical instillation of MPP. Particulars: Dutch-belted, rabbit, topical or ocular, 50 μL of 0.5% MPP, MPP 0.5%, 50 μL topical, BID 5 days, 8 mm round punch. Type of data set: in vivo, Dutch-belted rabbits.
Description: as §1
The portion of the retina and choroid collected and analyzed was an 8 mm round punch where the macula is located in humans.

Data set [3] can be described thus: Physical and chemical stability of Compound 4 solutions at ambient temperature. Particulars: 20-25° C. Type of data set: physicochemical. The protocol:
In this example, Compound 4 was formulated as a solution for topical ocular administration. Solutions of Compound 4 were formulated at a range of concentrations. Briefly, Compound 4 was first completely solubilized using an acidic solution (0.1N HCl) at a high concentration of ˜5% (w/v). The final formulation was diluted to 0.5, 0.1, or 0.05% (w/v) Compound 4 into 20 mM Citrate buffered solution containing TWEEN 80 as described in Table 7. Following dilution, the pH's of the formulations were estimated to be ˜5.5-6.5, using a universal pH indicator solution (Ricca).
Solution physical and chemical stability at ambient temperature (20-25° C.) were evaluated 10-21 days after initial formulation (tfinal). Physical stability was assessed visually. No precipitation or sedimentation in any samples was observed. All formulations maintained good chemical stability, within 10% of target concentration at tfinal. The API purity as defined by % peak area for all formulations were also high, at >99% (Table 8). Formulations pH's were also measured using a universal pH indicator solution (RICCA) and confirmed be similar to those at initial time of formulation.

Data set [4] can be described thus: Particle size of compounds milled with PLURONIC F127 as MPP, by dynamic light scattering. Type of data set: physicochemical. To be noted: formulated as MPP, milled with PLURONIC F127, buffered with DPBS. The source says:
The compounds of the present invention synthesized in accordance with the preceding Examples were formulated as mucus penetrating particles (MPP). Specifically, Compound 4 of Example 1, Compound 9 of Example 2, and Compound 13 of Example 3 were each milled in the presence of PLURONIC F127 (F127) to determine whether F127 1) aids particle size reduction to several hundreds of nanometers and 2) physically (non-covalently) coats the surface of generated nanoparticles with a mucoinert coating that would minimize particle interactions with mucus constituents and prevent mucus adhesion.
A milling procedure was employed in which an aqueous dispersion containing coarse drug particles and PLURONIC F127 (F127) was milled with grinding medium until particle size was reduced below 400 nm as measured by dynamic light scattering. Table 4 lists the size of particles and polydispersity index (a measure of the width of the particle size distribution) generated using this technique. In this example suspensions were buffered using DPBS (Dulbecco's Phosphate-Buffered Saline) which yields a suspension that is both isotonic and has a physiologically relevant pH.

Setting [5] is: target API 0.05% (w/v), TWEEN 80 0.05% (w/v), tfinal 13 days.
Where [6] appears, read: target API 0.10% (w/v), TWEEN 80 0.1% (w/v), tfinal 21 days.
Setting [7] is: target API 0.50% (w/v), TWEEN 80 4% (w/v), tfinal 10 days.

The values below come from patent US10758539B2, “Therapeutic compounds and uses thereof” (Kala Pharmaceuticals, Inc., priority 2013, dated 2020).

Where two headings read alike, the source gives them in different places.

For the compound `COc1cc2c(Oc3ccc4[nH]c(C)cc4c3F)ncnc2cc1OCCCN1CCC2(CC1)COC2` [Compound 4, 7-(3-(4-(4-fluoro-2-methyl-1H-indol-5-yloxy)-6-methoxyquinazolin-7-yloxy)propyl)-2-oxa-7-azaspiro[3.5]nonane], the “Draize-Ocular Irritation” value in data set [1] is on record as “no irritation was seen”. The AUC(0-t) is 37.2 µM·h in data set [2] (choroid, read-out: AUC0-last Choroid) and 1.15 µM·h in data set [2] (retina, read-out: AUC0-last Retina). The Cmax (as a rule, the peak of the concentration-time curve) came to 3900 nM in data set [2] (choroid, read-out: Cmax Choroid) and 193 nM in data set [2] (retina, read-out: Cmax Retina). Further, the results for the “API % (w/v) at t = tfinal” value in data set [3] (setting [5]), in data set [3] (setting [6]) and in data set [3] (setting [7]) were 0.05 % (w/v), 0.11 % (w/v) and 0.51 % (w/v), respectively. Besides, the “API % peak area at t = tfinal” value in data set [3] (setting [5]) worked out at 99.45%; in data set [3] (setting [6]), 99.47%; in data set [3] (setting [7]) it was 99.27%. Moreover, the “Particle Size” value in data set [4] is recorded as 270 nm. The “Polydispersity Index (PDI)” value in data set [4] was 0.142.
For the compound `CCCNC(=O)n1c(C)cc2c(F)c(Oc3ncnc4cc(OC)c(OC)cc34)ccc21` [Compound 13, 5-(6,7-Dimethoxyquinazolin-4-yloxy)-4-fluoro-2-methyl-N-propyl-1H-indole-1-carboxamide], in data set [4], the “Particle Size” value is reported as 165 nm and the “Polydispersity Index (PDI)” value turned out to be 0.227.
